We go through 1 molecule from patent US11084841B1, “Chitooligosaccharide-N-geraniol derivatives, methods for preparing and application thereof” (Jiangnan University, priority 2020, dated 2021).

Molecules are shown by their SMILES.

Test [1] concerns Escherichia coli. Briefly: antibacterial activity test, culture plate with antibacterial substance. The class given is cell-based. The note with it: 1 mg/ml antibacterial substance, 37° C., 24 hours, versus control plate, FIG. 6. As to the method: (§1) Gram negative and positive bacterium (Escherichia coli and Staphylococcus aureus) are selected for the antibacterial activity test. The bacteria strain was selected to grow in LB culture medium and sub-culture to the second generation in logarithmic phase. The bacterial suspension was diluted to the required concentration (10^5 CFU/ml) with normal saline. Under the aseptic condition, the bacterial solution and antibacterial substance solution (mix 5 μL bacterial solution and 5 mL LB liquid medium containing 1 mg/ml antibacterial substance) were added onto the culture plate and mixed evenly. The control group was the culture plate without antibacterial substance, and then the culture plates were incubated at 37° C. for 24 hours to observe the growth of bacteria.

The test system of test [2] is Staphylococcus aureus. Described as above. The settings on record: 1 mg/ml antibacterial substance, 37° C., 24 hours, versus control plate, FIG. 5. The test is classed as cell-based. As to the method:
as §1

On to `CC(C)=CCC/C(C)=C/CO` [Ger, (2E)-3,7-dimethylocta-2,6-dien-1-ol], for which the “inhibition of bacterial growth” value in test [1] and in test [2] was “able to inhibit” in each case.
